*1 amine or outer side, *2 acyl side, *3 side chain or, on linkers, in order; H or OH if unused. Where a SMILES comes first, the peptide text is derived from it. Bridges are numbered along the chain shown (N, C = ends). Side-chain parts run from the residue outwards. [ ]: non-standard residue; d: D form. The star is where a group is joined. Me3N+(CH2)2O(CH2)2O(CH2)2CO = C[N+](C)(C)CCOCCOCCC(=O)*; X24 = O=C(O)CCCCCCCCCCCCCCCCCN[C@@H](CCC(=O)*)C(=O)O; Trp(7-Me) = Cc1cccc2c(C[C@H](N)C(=O)O)c[nH]c12; Hexanoyl(6-NMe3+) = C[N+](C)(C)CCCCCC(=O)*; C18 diacid = O=C(O)CCCCCCCCCCCCCCCCC(=O)*; γGlu = O=C(O)[C@H](CCC(=O)[*:2])N[*:1]; 2Nal = N[C@@H](Cc1ccc2ccccc2c1)C(=O)O; AEF = NCCOc1ccc(C[C@H](N)C(=O)O)cc1; 2Pal = N[C@@H](Cc1ccccn1)C(=O)O; 3Pal = N[C@@H](Cc1cccnc1)C(=O)O; Lys(Me) = CNCCCC[C@H](N)C(=O)O; Pen = CC(C)(S)[C@H](N)C(=O)O; Thp = NC1(C(=O)O)CCOCC1; X1 = C[N+](C)(C)CCCCC*; AEEA = NCCOCCOCC(=O)O; Sar = CNCC(=O)O
Legend:
IL-23R = target: T1, IL-23R (Homo sapiens, UniProt Q5VWK5); experiment: IL23R Reporter Assay; type: cell-based; details: HEK293 cells containing IL-23R, IL-12Rβ1 and STAT-inducible firefly luciferase reporter; 10 ng/mL IL-23 (EC90); 5 h
T1 construct: HEK293 cells containing IL-23R, IL-12Rβ1 and a firefly luciferase reporter gene driven by a STAT-inducible promoter (Promega); host or cells: HEK293
T1 sequence (Q5VWK5 24-629): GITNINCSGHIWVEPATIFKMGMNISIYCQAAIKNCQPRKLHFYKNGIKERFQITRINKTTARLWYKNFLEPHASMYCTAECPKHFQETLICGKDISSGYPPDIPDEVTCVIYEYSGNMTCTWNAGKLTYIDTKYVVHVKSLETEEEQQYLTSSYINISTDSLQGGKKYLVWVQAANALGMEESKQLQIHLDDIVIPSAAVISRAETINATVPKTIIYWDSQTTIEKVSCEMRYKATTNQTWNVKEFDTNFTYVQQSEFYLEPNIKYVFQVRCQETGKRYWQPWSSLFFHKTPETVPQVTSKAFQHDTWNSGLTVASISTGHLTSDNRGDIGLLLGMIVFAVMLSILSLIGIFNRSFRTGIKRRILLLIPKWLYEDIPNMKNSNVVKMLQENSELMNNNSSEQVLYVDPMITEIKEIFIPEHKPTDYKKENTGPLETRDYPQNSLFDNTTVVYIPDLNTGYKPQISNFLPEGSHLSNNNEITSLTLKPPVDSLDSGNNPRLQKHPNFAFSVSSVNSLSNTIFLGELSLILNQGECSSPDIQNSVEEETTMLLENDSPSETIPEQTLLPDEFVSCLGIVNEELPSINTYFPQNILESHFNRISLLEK
Outline: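 IC50 values were fitted with a 4-parameter Hill equation to luciferase signal, scaled between IL-23-only wells (0% inhibition) and 30 μM reference inhibitor (100%). The readout was a STAT-inducible reporter in IL-23R/IL-12Rβ1 HEK293 cells, stimulated with added 10 ng/mL IL-23 (EC90) for 5 h at 37° C and developed with BioGlo.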

[1] = tested on: IL-23-stimulated phosphorylated STAT3 in peripheral blood mononuclear cells (PBMCs); experiment: PBMC pSTAT3 Assay; type: cell-based; details: PBMCs from healthy donors; 30 min preincubation with peptide; IL-23 5 ng/mL for 30 min; phospho-STAT3 by MSD
Outline: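 Phospho-STAT3 quantified by Meso Scale assay in lysates of PBMCs exposed to IL-23 (5 ng/mL, 30 min, 37 °C) after 30 min peptide pretreatment. Cells were cryopreserved donor PBMCs activated 4 days with anti-CD3 plus IL-1β (100 ng/mL) and starved ~4 h; IC50 reported.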

IC50 (IL-23R) [nM]	SMILES	IC50 [1] [nM]
< 50	CC(=O)NCCCC[C@@H]1NC(=O)[C@H](Cc2c[nH]c3c(C)cccc23)NC(=O)[C@H]([C@@H](C)O)NC(=O)[C@H](CCCCNC(=O)COCCOCCNC(=O)COCCOCCNC(=O)CC[C@H](NC(=O)CCCCCCCCCCCCCCCCC(=O)O)C(=O)O)NC(=O)[C@@H](NC(=O)[C@@H](CCCNC(=N)N)NC(C)=O)C(C)(C)SSC(C)(C)[C@@H](C(=O)N[C@@H](Cc2ccc(OCCN)cc2)C(=O)N[C@@H](Cc2ccc3ccccc3c2)C(=O)NC2(C(=O)N[C@@H](CCCCN(C)C(=O)CCOCCOCC[N+](C)(C)C)C(=O)N[C@@H](CC(N)=O)C(=O)N[C@@H](Cc3ccccn3)C(=O)N(C)CC(N)=O)CCOCC2)NC1=O [compound 74, MeCO-r-Pen(3)-K(PEG2PEG2gEC18OH)-T-7MeW-K(Ac)-Pen(3)-AEF-2Nal-THP-K(NMecPEG3a)-N-3Pya-Sar-CONH2] (Ac-[dR][Pen]K([AEEA-AEEA-γGlu-C18 diacid])T[Trp(7-Me)]K(Ac)[Pen][AEF][2Nal][Thp][Lys(Me)](Me3N+(CH2)2O(CH2)2O(CH2)2CO)N[2Pal][Sar]-NH2; disulfide 2-7)	< 0.5
< 50	CC(=O)NCCCC[C@@H]1NC(=O)[C@H](Cc2c[nH]c3c(C)cccc23)NC(=O)[C@H]([C@@H](C)O)NC(=O)[C@H](CCCCNC(=O)COCCOCCNC(=O)COCCOCCNC(=O)CC[C@H](NC(=O)CCCCCCCCCCCCCCCCC(=O)O)C(=O)O)NC(=O)[C@@H](NC(=O)[C@@H](CCCNC(=N)N)NC(C)=O)C(C)(C)SSC(C)(C)[C@@H](C(=O)N[C@@H](Cc2ccc(OCCCCC[N+](C)(C)C)cc2)C(=O)N[C@@H](Cc2ccc3ccccc3c2)C(=O)NC2(C(=O)N[C@@H](CCC(=O)O)C(=O)N[C@@H](CC(N)=O)C(=O)N[C@@H](Cc3cccnc3)C(=O)N(C)CC(N)=O)CCOCC2)NC1=O [compound 75, MeCO-r-Pen(3)-K(PEG2PEG2gEC18OH)-T-7MeW-K(Ac)-Pen(3)-TMAPF-2Nal-THP-E-N-3Pya-Sar-CONH2] (Ac-[dR][Pen]K([AEEA-AEEA-γGlu-C18 diacid])T[Trp(7-Me)]K(Ac)[Pen]Y(X1)[2Nal][Thp]EN[3Pal][Sar]-NH2; disulfide 2-7)	< 0.5
< 50	CC(=O)N[C@H](CCCNC(=N)N)C(=O)N[C@@H]1C(=O)N[C@@H](CCCCNC(=O)COCCOCCNC(=O)COCCOCCNC(=O)CC[C@H](NC(=O)CCCCCCCCCCCCCCCCC(=O)O)C(=O)O)C(=O)N[C@@H]([C@@H](C)O)C(=O)N[C@@H](Cc2c[nH]c3c(C)cccc23)C(=O)N[C@@H](CCCCN(C)C(=O)CCOCCOCC[N+](C)(C)C)C(=O)N[C@H](C(=O)N[C@@H](Cc2ccc(OCCN)cc2)C(=O)N[C@@H](Cc2ccc3ccccc3c2)C(=O)NC2(C(=O)N[C@@H](CCC(=O)O)C(=O)N[C@@H](CC(N)=O)C(=O)N[C@@H](Cc3cccnc3)C(=O)N(C)CC(N)=O)CCOCC2)C(C)(C)SSC1(C)C [compound 76, MeCO-r-Pen(3)-K(PEG2PEG2gEC18OH)-T-7MeW-K(NMecPEG3a)-Pen(3)-AEF-2Nal-THP-E-N-3Pya-Sar-CONH2] (Ac-[dR][Pen]K([AEEA-AEEA-γGlu-C18 diacid])T[Trp(7-Me)][Lys(Me)](Me3N+(CH2)2O(CH2)2O(CH2)2CO)[Pen][AEF][2Nal][Thp]EN[3Pal][Sar]-NH2; disulfide 2-7)	< 0.5
50 to 500	CC(=O)N[C@H](CCCNC(=N)N)C(=O)N[C@@H]1C(=O)N[C@@H](CCCCNC(=O)COCCOCCNC(=O)COCCOCCNC(=O)CC[C@H](NC(=O)CCCCCCCCCCCCCCCCC(=O)O)C(=O)O)C(=O)N[C@@H]([C@@H](C)O)C(=O)N[C@@H](Cc2c[nH]c3c(C)cccc23)C(=O)N[C@@H](CCCCN(C)C(=O)CCOCCOCC[N+](C)(C)C)C(=O)N[C@H](C(=O)N[C@@H](Cc2ccc(OCCN)cc2)C(=O)N[C@@H](Cc2ccc3ccccc3c2)C(=O)NC2(C(=O)N[C@@H](CCC(=O)O)C(=O)N[C@@H](CC(N)=O)C(=O)N[C@@H](Cc3cccnc3)C(=O)N(C)CC(N)=O)CCOCC2)C(C)(C)SSC1(C)C [compound 77, 5cpaCO-Pen(3)-N-T-7MeW-K(Ac)-Pen(3)-AEF-2Nal-THP-K(PEG2PEG2gEC18OH)-N-3Pya-Sar-CONH2] (Ac-[dR][Pen]K([AEEA-AEEA-γGlu-C18 diacid])T[Trp(7-Me)][Lys(Me)](Me3N+(CH2)2O(CH2)2O(CH2)2CO)[Pen][AEF][2Nal][Thp]EN[3Pal][Sar]-NH2; disulfide 2-7)	< 0.5

Further lines, the compound ahead of its results:

SMILES	IC50 (IL-23R) [nM]	IC50 [1] [nM]
Cc1cccc2c(C[C@@H]3NC(=O)[C@H]([C@@H](C)O)NC(=O)[C@H](CC(N)=O)NC(=O)[C@@H](NC(=O)[C@@H](CCCNC(=N)N)NC(=O)CCCCC[N+](C)(C)C)C(C)(C)SSC(C)(C)[C@@H](C(=O)N[C@@H](Cc4ccc(OCCN)cc4)C(=O)N[C@@H](Cc4ccc5ccccc5c4)C(=O)NC4(C(=O)N[C@@H](CCC(=O)O)C(=O)N[C@@H](CC(N)=O)C(=O)N[C@@H](Cc5cccnc5)C(=O)N(C)CC(N)=O)CCOCC4)NC(=O)[C@H](CCCCNC(=O)COCCOCCNC(=O)COCCOCCNC(=O)CC[C@H](NCCCCCCCCCCCCCCCCCC(=O)O)C(=O)O)NC3=O)c[nH]c12 [compound 71, 5cpaCO-r-Pen(3)-N-T-7MeW-K(PEG2PEG2C18OH)-Pen(3)-AEF-2Nal-THP-E-N-3Pya-Sar-CONH2] ({Hexanoyl(6-NMe3+)}-[dR][Pen]NT[Trp(7-Me)]K([AEEA-AEEA-X24])[Pen][AEF][2Nal][Thp]EN[3Pal][Sar]-NH2; disulfide 2-7)	50 to 500	< 0.5
Cc1cccc2c(C[C@@H]3NC(=O)[C@H]([C@@H](C)O)NC(=O)[C@H](CC(N)=O)NC(=O)[C@@H](NC(=O)[C@@H](CCCNC(=N)N)NC(=O)CCOCCOCC[N+](C)(C)C)C(C)(C)SSC(C)(C)[C@@H](C(=O)N[C@@H](Cc4ccc(OCCN)cc4)C(=O)N[C@@H](Cc4ccc5ccccc5c4)C(=O)NC4(C(=O)N[C@@H](CCC(=O)O)C(=O)N[C@@H](CC(N)=O)C(=O)N[C@@H](Cc5cccnc5)C(=O)N(C)CC(N)=O)CCOCC4)NC(=O)[C@H](CCCCNC(=O)COCCOCCNC(=O)COCCOCCNC(=O)CC[C@H](NC(=O)CCCCCCCCCCCCCCCCC(=O)O)C(=O)O)NC3=O)c[nH]c12 [compound 72, cPEG3aCO-r-Pen(3)-N-T-7MeW-K(PEG2PEG2C18OH)-Pen(3)-AEF-2Nal-THP-E-N-3Pya-Sar-CONH2] ({Me3N+(CH2)2O(CH2)2O(CH2)2CO}-[dR][Pen]NT[Trp(7-Me)]K([AEEA-AEEA-γGlu-C18 diacid])[Pen][AEF][2Nal][Thp]EN[3Pal][Sar]-NH2; disulfide 2-7)	50 to 500	< 0.5
CC(=O)NCCCC[C@@H]1NC(=O)[C@H](Cc2c[nH]c3c(C)cccc23)NC(=O)[C@H]([C@@H](C)O)NC(=O)[C@H](CCCCNC(=O)COCCOCCNC(=O)COCCOCCNC(=O)CC[C@H](NC(=O)CCCCCCCCCCCCCCCCC(=O)O)C(=O)O)NC(=O)[C@@H](NC(=O)[C@@H](CCCNC(=N)N)NC(=O)CCCCC[N+](C)(C)C)C(C)(C)SSC(C)(C)[C@@H](C(=O)N[C@@H](Cc2ccc(OCCN)cc2)C(=O)N[C@@H](Cc2ccc3ccccc3c2)C(=O)NC2(C(=O)N[C@@H](CCC(=O)O)C(=O)N[C@@H](CC(N)=O)C(=O)N[C@@H](Cc3cccnc3)C(=O)N(C)CC(N)=O)CCOCC2)NC1=O [compound 73, 5cpaCO-r-Pen(3)-K(PEG2PEG2gEC18OH)-T-7MeW-K(Ac)-Pen(3)-AEF-2Nal-THP-E-N-3Pya-Sar-CONH2] ({Hexanoyl(6-NMe3+)}-[dR][Pen]K([AEEA-AEEA-γGlu-C18 diacid])T[Trp(7-Me)]K(Ac)[Pen][AEF][2Nal][Thp]EN[3Pal][Sar]-NH2; disulfide 2-7)	50 to 500	< 0.5
CC(=O)NCCCC[C@@H]1NC(=O)[C@H](CC2CNc3c(C)cccc32)NC(=O)[C@H]([C@@H](C)O)NC(=O)[C@H](CC(N)=O)NC(=O)[C@@H](NC(=O)CCOCCOCC[N+](C)(C)C)C(C)(C)SSC(C)(C)[C@@H](C(=O)N[C@@H](Cc2ccc(OCCN)cc2)C(=O)N[C@@H](Cc2ccc3ccccc3c2)C(=O)NC2(C(=O)N[C@@H](CCCCNC(=O)COCCOCCNC(=O)COCCOCCNC(=O)CC[C@H](NC(=O)CCCCCCCCCCCCCCCCC(=O)O)C(=O)O)C(=O)N[C@@H](CC(N)=O)C(=O)N[C@@H](Cc3cccnc3)C(=O)N(C)CC(N)=O)CCOCC2)NC1=O (stereo partly drawn) [compound 78, cPEG3aCO-Pen(3)-N-T-7MeW-K(Ac)-Pen(3)-AEF-2Nal-THP-K(PEG2PEG2gEC18OH)-N-3Pya-Sar-CONH2]	50 to 500	< 0.5
